Measured values reported in PMC10991509, “A phase I study of ATR inhibitor gartisertib (M4344) as a single agent and in combination with carboplatin in patients with advanced solid tumours” (British Journal of Cancer, 2024).
Where two headings read alike, the source gives them in different places.

Legend:
UGT1A1 [1] = target: T1, UGT1A1 (Homo sapiens, UniProt P22309); assay: UGT1A1 inhibition in human liver microsomes; assay type: in vitro ADME; conditions: value (standard error)
T1 construct: from tissue; host or cells: human liver microsomes
T1 sequence (P22309 26-533): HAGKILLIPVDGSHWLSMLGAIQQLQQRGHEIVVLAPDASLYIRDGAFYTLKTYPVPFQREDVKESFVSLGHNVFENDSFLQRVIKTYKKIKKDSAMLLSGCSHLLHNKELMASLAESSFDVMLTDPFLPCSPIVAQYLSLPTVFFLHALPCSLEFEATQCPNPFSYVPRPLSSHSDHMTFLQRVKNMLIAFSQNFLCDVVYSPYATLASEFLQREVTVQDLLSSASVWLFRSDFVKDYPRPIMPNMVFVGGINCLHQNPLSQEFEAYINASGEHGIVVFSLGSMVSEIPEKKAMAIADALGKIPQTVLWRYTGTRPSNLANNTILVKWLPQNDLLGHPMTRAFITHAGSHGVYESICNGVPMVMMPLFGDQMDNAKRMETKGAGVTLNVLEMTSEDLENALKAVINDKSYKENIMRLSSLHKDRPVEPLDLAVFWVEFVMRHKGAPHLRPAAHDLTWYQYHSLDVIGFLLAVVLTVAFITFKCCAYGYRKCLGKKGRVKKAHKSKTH

UGT1A1 [2] = target: T2, UGT1A1 (Rattus norvegicus, UniProt Q64550); assay: UGT1A1 inhibition in rat liver microsomes; assay type: in vitro ADME; conditions: value (standard error)
T2 construct: from tissue; host or cells: rat liver microsomes
T2 sequence (Q64550 30-535): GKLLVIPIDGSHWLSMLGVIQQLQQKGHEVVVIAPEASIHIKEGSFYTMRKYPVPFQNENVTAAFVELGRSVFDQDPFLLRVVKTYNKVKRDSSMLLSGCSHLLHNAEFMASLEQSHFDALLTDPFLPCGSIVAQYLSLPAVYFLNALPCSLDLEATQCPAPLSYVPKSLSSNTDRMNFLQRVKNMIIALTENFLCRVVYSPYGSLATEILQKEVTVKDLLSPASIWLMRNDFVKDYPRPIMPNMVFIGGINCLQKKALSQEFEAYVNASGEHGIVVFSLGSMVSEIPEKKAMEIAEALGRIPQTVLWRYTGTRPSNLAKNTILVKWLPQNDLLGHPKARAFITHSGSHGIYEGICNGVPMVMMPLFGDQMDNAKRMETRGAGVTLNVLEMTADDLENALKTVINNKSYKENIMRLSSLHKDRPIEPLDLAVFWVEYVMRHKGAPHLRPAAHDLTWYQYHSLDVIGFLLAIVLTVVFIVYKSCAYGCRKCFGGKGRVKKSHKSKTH

[3] = Plasma pharmacokinetics of gartisertib; assay type: in vivo, human; conditions: for clearance: read-out: drug clearance
From the text: The secondary objectives for cohorts A, A2, and B1 were to assess antitumour activity and PK. Endpoints associated with antitumour activity included confirmed best overall response (BOR), according to RECIST v1.1. PK endpoints included PK parameter estimates, derived from plasma concentration-time data. Please see the Supplementary Materials for details on further PK endpoints and assessments as well as the PK assessment schedule (Supplementary Table S2).
Categorical variables (such as incidence of a TEAE) were summarised using frequency counts and percentages, along with 2-sided exact Clopper–Pearson 95% confidence intervals (CIs). TEAEs observed were summarised by System Organ Class and Preferred Term according to the Medical Dictionary for Regulatory Activities (versions 23.0 and 24.0). Standard non-compartmental methods were used to determine PK parameters.
Blood samples were collected according to the Schedule of Assessments in order to measure gartisertib (and metabolites where appropriate) plasma concentrations. PK parameters included maximum observed plasma concentration (Cmax), time to reach maximum observed plasma concentration (Tmax), terminal half-life, area under the concentration–time curve (AUC) from time zero extrapolated to infinity, apparent oral clearance, and apparent volume of distribution during the terminal phase as well as Cmax and AUC accumulation ratios. Please see Table S2 for the PK assessment schedule.

UGT1A1 [4] = target: UGT1A1 (Canis lupus familiaris, UniProt A0A8I3S535); assay: UGT1A1 inhibition in dog liver microsomes
Sequence of UGT1A1 (Canis lupus familiaris, UniProt A0A8I3S535) (A0A8I3S535 entry or part of it): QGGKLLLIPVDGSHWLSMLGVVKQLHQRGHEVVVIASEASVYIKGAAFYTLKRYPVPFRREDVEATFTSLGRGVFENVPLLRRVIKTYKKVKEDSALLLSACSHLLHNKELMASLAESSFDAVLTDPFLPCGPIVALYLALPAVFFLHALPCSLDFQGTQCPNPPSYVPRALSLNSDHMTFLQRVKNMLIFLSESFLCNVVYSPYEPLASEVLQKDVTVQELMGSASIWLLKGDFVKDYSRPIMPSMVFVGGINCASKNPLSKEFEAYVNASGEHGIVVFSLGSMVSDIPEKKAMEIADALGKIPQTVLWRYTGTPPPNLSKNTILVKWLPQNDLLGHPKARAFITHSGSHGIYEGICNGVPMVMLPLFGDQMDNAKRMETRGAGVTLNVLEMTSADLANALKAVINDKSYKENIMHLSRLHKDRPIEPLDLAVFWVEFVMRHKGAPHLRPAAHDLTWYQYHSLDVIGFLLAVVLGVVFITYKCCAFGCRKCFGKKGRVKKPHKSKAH

SMILES: Nc1nn2cc(F)cnc2c1C(=O)Nc1cncc(F)c1N1CCC(C(=O)N2CCN(C3COC3)CC2)CC1 [gartisertib, Gartisertib]
- IC50 (UGT1A1 [1]): 8.36 µM
- IC50 (UGT1A1 [2]): > 50 µM
- accumulation following multiple gartisertib doses ([3]; cohort A): less than 2 fold
- urinary excretion of gartisertib ([3]; cohort A2): minor route of elimination
- time median plasma concentrations remained above the lower limit of quantification (1.00 ng/mL) ([3]; cohort A2, 250 mg dose): ≤ 24 h
- time median plasma concentrations remained above the lower limit of quantification (1.00 ng/mL) ([3]; cohort A2, doses other than 250 mg): up to 8 hours
- accumulation compared with day 1 ([3]; cohort A, 450 mg dose): no accumulation
- accumulation of AUC0-t at day 8 compared with day 1 ([3]; cohort A, 1200 mg dose group): 1.9 fold
- accumulation of Cmax at day 8 compared with day 1 ([3]; cohort A, 1200 mg dose group): 1.6 fold
- time of peak median plasma gartisertib concentration ([3]; cohort A, 1200 mg group): 4 hours post dose
- time median gartisertib concentrations remained above the lowest level of quantification (1.00 ng/mL) ([3]; cohort A, 450, 700, 1050 and 1200 mg groups): up to 24 hours post dose
- exposure (Cmax and AUC) versus dose ([3]; cohorts A, A2, and B1, high variability): dose-proportional exposure
- clearance ([3]; human, plasma, oral, cohort A2, day 1): 3450 to 8580 mL/min
- clearance ([3]; human, plasma, oral, cohort A2, day 8): 3980 to 7070 mL/min
- half-life ([3]; human, plasma, oral, cohorts A, A2, and B1, read-out: half-life (t1/2)): 2 to 5 h
- half-life ([3]; human, plasma, oral, cohort A, four highest dose levels, read-out: geometric mean terminal half-life): 2.22 to 4.61 h
- Vd ([3]; human, plasma, oral, cohort A, four highest dose levels, read-out: volume of distribution based on the terminal elimination phase following extravascular administration): 1480 to 4060 L
- IC50 (UGT1A1 [4]): > 50 µM
